Columns and labels:
MRC5 cells [1] = details: read-out: IC50 MRC5; MTT, 48 hr, non-cancer cells
Procedure: All the beta-carboline derivatives were provided by Xinjiang Huashidan Pharmaceutical Co. Ltd. The culture media and fetal bovine serum (FBS) were purchased from Hyclone (Hyclone Laboratories Inc., USA). […] All the cell lines were obtained from the Cell Culture Centre, Institute of Basic Medical Science, Chinese Academy of Medical Science and incubated at 37°C supplied with 5% CO2. HeLa cells were grown in standard DMEM with 10% FBS.
MRC5, HeLa, HepG2, PC3 and MG63 cells were seeded at 3000–6000 cells/well (200 µl/well) in a 96-well plate and incubated overnight. Then different concentrations of compounds were added into the cell cultures with a final concentration of 0.1% DMSO and incubated for an additional 48 hr. After that, 22 µl MTT solution (5 mg/ml) was added into each well and incubated at 37°C for 4 hr.

Aurora-B = Aurora-B (Homo sapiens, UniProt Q96GD4); assay: In vitro kinase assay Aurora B; assay type: biochemical
Procedure: The inhibition of PLK1 kinase activity was assessed using the Cyclex PLK1 Assay/Inhibitor Screening Kit (MBL International Corporation, Japan). The kit includes anti-phospho-threonine polyclonal antibody (PPT-07) and peroxidase coupled anti-rabbit IgG antibody as a reporter in a 96-well ELSIA format. Compounds were used at the concentrations from 10^− ^3 to 10^2 µg/ml and the absorbance was determined at 450 nm. A similar protocol was used to determine the kinase inhibition for PLK2, PLK3, Aurora A and Aurora B. The kinase activity of CDK1/cyclinB and CDK2/cyclinE was analyzed in the presence of serially diluted inhibitors. For each reaction, 20 ng of recombinant kinase was used and […] casein from bovine milk (Sigma) was added as the kinase substrate. The kinase reaction buffer contains 8 mM MOPS pH7.0, 0.2 mM EDTA, 0.1 mg/ml histone H1, 10 mM and MgAcetace and [γ^− ^33P-ATP] (500 cpm/pmol). The reaction was initiated by adding the MgATP mix. After incubation for 40 minutes at room temperature, the reaction was stopped by the addition of 3% phosphoric acid solution. We spotted 10 µl of the reaction mixture onto a P30 filtermat and washed three times for 5 min with 75 mM phosphoric acid and once with methanol prior to drying and scintillation counting.

MRC5 cells [2] = assay: FACS cell cycle analysis (PI), MRC5; assay type: cell-based, Human; details: 48 hr
Procedure: It is well documented that PLK1 is involved in multiple steps in mitosis, such as centrosome maturation and establishment of bipolar spindle. […] Therefore, the down-regulation of PLK1 would change the distribution of cells in different cell cycle stages. To test this possibility, fluorescence-activated cell sorter (FACS) analysis was used to analyze the DNA content of HeLa cells treated with the identified PLK1 inhibitors, DH281, DH285, and DH287. HeLa cells were first incubated in the absence and presence of these compounds at different concentrations (0, 0.12, 0.48 and 1.92 µM) for 48 hr. […] Treatment with a lower concentration of the compounds (0.12 and 0.48 µM) also led to an obvious increase of the cell population in G2/M phase (Figure 4A, Table 3). Moreover, the proportion of HeLa cells in G2/M phase increased over time after incubation in the presence of 0.8 µM of DH281, DH285 and DH287 (Figure 4B, Table 4). […] We also determined the cell cycle distribution of the non-cancer MRC5 cells after treatment with DH281 at different concentrations. […] It is also possible that inhibition of the kinase activity of the whole PLK family by beta-carboline compounds results in the defect in cell cycle progression.
Tumor cells were exposed to vehicle (0.1% DMSO) or compounds at 0, 0.12, 0.48, and 1.92 µM for 48 hr or 0.8 µM for 24, 48, and 72 hr; MRC5 cells were exposed to compounds at 0, 0.12, 0.48, and 1.92 µM for 48 hr. The floated and attached cells were treated by trypsinization and washed with cold PBS. The cells were then fixed with 70% (v/v) ethanol at 4°C overnight. The fixed cells were washed twice with PBS and incubated with 50 µg/mL RNase A (Sigma, USA) and 50 µg/mL propidium iodide (PI) (Sigma, USA) at 37°C for 30 min.

MRC5 cells [3] = assay: FITC-Annexin V/PI apoptosis assay, MRC5; assay type: cell-based, Human; details: 48 hr
From the text: Staining with Annexin V–FITC and propidium iodide (PI) is commonly used to distinguish apoptotic, necrotic, and dead cells. PI is impermeant to live cells and apoptotic cells at early stages, but it stains dead cells and apoptotic cells at late stages through its binding to the nucleic acids. Apoptotic cells in early or late stages are stained positively for Annexin V-FITC that binds to phosphotidylserine. We used FACS analysis to determine the proportion of HeLa cells positive for Annexin V-FITC (FITC), PI, or both. The HeLa cells with PI^−/PI^+ FITC^+ were counted as apoptotic cells (Figure 5). […] However, 16.19% (3.96+12.23) of HeLa cells became FITC positive after treatment with 1.05 µM DH281 for 48 hr. The treatment with 5.25 µM DH281 induced apoptosis among 89.6% (89.51+0.09) of HeLa cells (Table 5). […] In contrast to HeLa cells, the induction of apoptosis by DH281 was much less efficient in non-cancer MRC5 cells (Table 5). Therefore, we conclude that the treatment with compounds DH281, DH285 and DH287 induces substantial apoptosis in HeLa cells, but non-cancer MRC5 cells are much less sensitive to the treatment. The distinct apoptotic responses of HeLa and MRC5 cells to beta-carboline compounds could explain the selectivity of PLK1 inhibitors toward cancer cells.
HeLa cells were either treated with 0, 0.21, 1.05 and 5.25 µM of DH281, DH285 and DH287 for 48 hr, or treated with 1.21 µM compounds for 24, 48 and 72 hr, while MRC5 cells were exposed to compounds at 0, 0.21, 1.05, and 5.25 µM for 48 hr. The cultured cells were harvested, washed three times with PBS, and resuspended in 500 µl binding buffer (10 mM Hepes/sodium hydroxide (pH7.4), 140 mM sodium chloride, and 2.5 mM CaCl2). Then 5 µl FITC-labeled Annexin V (Zhongshan JinQiao Biotechnology Ltd., Beijing) was added and the cells were incubated in the dark for 10 min. We added 5 µl of propidium iodide (PI) (10 µg/ml in binding buffer) to each sample before flow cytometry analysis.

Chain of Aurora-B (Q96GD4 whole entry): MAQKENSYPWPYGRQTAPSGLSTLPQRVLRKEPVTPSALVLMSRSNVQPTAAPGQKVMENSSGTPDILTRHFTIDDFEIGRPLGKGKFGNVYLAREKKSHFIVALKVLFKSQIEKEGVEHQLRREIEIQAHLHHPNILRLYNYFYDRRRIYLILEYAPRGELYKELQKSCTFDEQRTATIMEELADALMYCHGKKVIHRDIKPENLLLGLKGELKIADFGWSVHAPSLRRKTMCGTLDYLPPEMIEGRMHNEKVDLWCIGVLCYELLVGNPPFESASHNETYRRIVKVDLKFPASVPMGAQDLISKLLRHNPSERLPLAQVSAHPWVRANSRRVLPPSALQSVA

Cc1c2c(cc[n+]1Cc1ccccc1)c1ccc(OCc3ccccc3)cc1n2Cc1ccccc1 [DH287]
IC50 (MRC5 cells [1]): 3.06 ± 0.69 µM
IC50 (Aurora-B): 24.7 µM

Cc1c2c(cc[n+]1Cc1ccccc1)c1ccc(OCc3ccc(F)cc3)cc1n2CCCc1ccccc1 [DH281]
cells in G1 (MRC5 cells [2]; MRC5, 0.12 µM): 75.3%
cells in G2 (G2/M) (MRC5 cells [2]; MRC5, 0.12 µM): 15.5%
cells in S (MRC5 cells [2]; MRC5, 0.12 µM): 9.18%
cells in G1 (MRC5 cells [2]; MRC5, 0.48 µM): 68.2%
cells in G2 (G2/M) (MRC5 cells [2]; MRC5, 0.48 µM): 14.6%
cells in S (MRC5 cells [2]; MRC5, 0.48 µM): 17.3. %
cells in G1 (MRC5 cells [2]; MRC5, 1.92 µM): 59.3%
cells in S (MRC5 cells [2]; MRC5, 1.92 µM): 25.6%
PI+ FITC+ (late apoptotic cells) (MRC5 cells [3]; MRC5, 0.21 µM): 5.07%
PI+ FITC− (dead cells) (MRC5 cells [3]; MRC5, 0.21 µM): 1.63%
PI− FITC− (live cells) (MRC5 cells [3]; MRC5, 0.21 µM): 92.4%
PI+ FITC+ (late apoptotic cells) (MRC5 cells [3]; MRC5, 1.05 µM): 0.59%
PI+ FITC− (dead cells) (MRC5 cells [3]; MRC5, 1.05 µM): 0.01%
PI− FITC+ (early apoptotic cells) (MRC5 cells [3]; MRC5, 1.05 µM): 13.3%
PI− FITC− (live cells) (MRC5 cells [3]; MRC5, 1.05 µM): 86.1%
PI+ FITC+ (late apoptotic cells) (MRC5 cells [3]; MRC5, 5.25 µM): 7.76%
PI+ FITC− (dead cells) (MRC5 cells [3]; MRC5, 5.25 µM): 10.5%
PI− FITC+ (early apoptotic cells) (MRC5 cells [3]; MRC5, 5.25 µM): 18.5%
PI− FITC− (live cells) (MRC5 cells [3]; MRC5, 5.25 µM): 63.2%

From article PMC3463587, “A Series of Beta-Carboline Derivatives Inhibit the Kinase Activity of PLKs” (PLoS ONE, 2012)
